The values that follow come from patent publication US11065253B2, “Arylquinazolines” (Merck Patent GmbH, priority 2013, dated 2021).

Bounds are passed on as bounds.

The test system of the first assay is phospho-serine 2056 DNA-PK in HCT116 cells. In words: DNA-PK phosphorylation at serine 2056 (cellular), ELISA in bleomycin-treated HCT116 cells. The conditions noted are these: Homo sapiens, HCT-116, 6 h, cellular; HCT116 cells, 10 μM bleomycin, six hours; read-out: IC50 pDNA-PK. Type of assay: cell-based. An outline of the steps: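 Chemiluminescent ELISA quantified DNA-PK Ser2056 phosphorylation relative to total DNA-PKcs in HCT116 cells. Cells received compounds together with 10 μM bleomycin for 6 h; DMSO served as blank.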
Take `COc1ncc(Cl)nc1C(O)c1ccc(F)c(-c2ncnc3cc(N4CCOCC4)ccc23)c1` (stereo not shown) [Example 25, (6-Chloro-3-methoxy-pyrazin-2-yl)-[4-fluoro-3-(7-morpholin-4-yl-quinazolin-4-yl)phenyl]-methanol]: the IC50 (usually the concentration that inhibits the measured activity by half) was under 0.5 µM.
For `OC(c1cc(-c2ncnc3cc(N4CCOCC4)ccc23)ccc1Cl)c1ncnc2ccsc12` (stereo not shown) [Example 89, [2-Chloro-5-(7-morpholin-4-yl-quinazolin-4-yl)-phenyl]thieno[3,2-d}-pyrimidin-4-ylmethanol], the IC50 is under 0.5 µM.
Same read-out and setting: next, `Cc1cnnc(C(O)c2cc(-c3ncnc4cc(N5CCOCC5)ccc34)c(F)cc2Cl)c1` (stereo not shown) [Example 46, [2-Chloro-4-fluoro-5-(7-morpholin-4-yl-quinazolin-4-yl)phenyl]-(5-methylpyridazin-3-yl)methanol]: 5 to 10 µM.
Regarding `OC(c1ccc(F)c(-c2ncnc3cc(N4CCOCC4)ccc23)c1)c1cnccn1` (stereo not shown) [Example 33, [4-Fluoro-3-(7-morpholin-4-yl-quinazolin-4-yl)phenyl]-pyrazin-2-ylmethanol], the half-inhibitory concentration (IC50) fell in the range of 10 to 30 µM.
The same measure, in the same setting: then `Cc1cnc(C)c(C(O)c2cc(-c3ncnc4cc(N5CCOCC5)ccc34)c(F)cc2F)n1` (stereo not shown) [Example 88, [2,4-Difluoro-5-(7-morpholin-4-yl-quinazolin-4-yl)-phenyl]-(3,6-dimethyl-pyrazin-2-yl)methanol], with under 0.5 µM.

The assay is the same for the next values; noted with them: Homo sapiens, HCT-116, cellular DNA-PK phosphorylation at serine 2056, HCT116 cells; read-out: IC50 pDNA-PK.
On to `Cc1cncnc1C(O)c1cc(-c2ncnc3cc(N4CCOCC4)ccc23)ccc1F` (stereo not shown) [Example 392, [2-Fluoro-5-(7-morpholin-4-yl-quinazolin-4-yl)-phenyl]-(5-methyl-pyrimidin-4-yl)-methanol], for which the IC50 is 0.5 to 5 µM.
Same read-out and setting: then `Cn1ncc2c(C(O)c3cc(-c4ncnc5cc(N6CCOCC6)ccc45)c(F)cc3Cl)ncnc21` (stereo not shown) [Example 402, [2-Chloro-4-fluoro-5-(7-morpholin-4-yl-quinazolin-4-yl)-phenyl]-(1-methyl-1H-pyrazolo[3,4-d}-pyrimidin-4-yl)-methanol], with 0.5 to 5 µM.

Still in this assay, the particulars now being: Homo sapiens, HCT-116, phospho-serine 2056 DNA-PK, bleomycin-treated HCT116 cells; class symbols A-D; read-out: IC50 pDNA-PK.
Consider `COc1ccc(C(O)(c2cc(-c3ncnc4cc(N5CCOCC5)ccc34)c(F)cc2Cl)C(F)F)nn1` (stereo not shown) [Example 123, 1-[2-Chloro-4-fluoro-5-(7-morpholin-4-yl-quinazolin-4-yl)-phenyl]-2,2-difluoro-1-(6-methoxy-pyridazin-3-yl)-ethanol], for which the IC50 fell in the range of 10 to 30 µM.
The same measure, in the same setting: then `OC(c1ccc2ncnn2c1)c1cc(-c2ncnc3cc(N4CCOCC4)ccc23)c(F)cc1F` (stereo not shown) [Example 222, [2,4-Difluoro-5-(7-morpholin-4-yl-quinazolin-4-yl)-phenyl]-[1,2,4]-triazolo[1,5-a]pyridin-6-ylmethanol], with 0.5 to 5 µM.

Staying with this assay, now noted: Homo sapiens, HCT-116, phospho-serine 2056 DNA-PK, bleomycin-treated HCT116 cells; read-out: IC50 pDNA-PK.
Turning to `COc1nccnc1C(C(N)=O)c1cc(-c2ncnc3cc(N4CCOCC4)ccc23)c(F)cc1F` (stereo not shown) [Example 319, 2-[2,4-Difluoro-5-(7-morpholin-4-ylquinazolin-4-yl)phenyl]-2-(3-methoxypyrazin-2-yl)-acetamide], the half-maximal inhibitory concentration (IC50) lay in the range of 5 to 10 µM.
Same read-out and setting: next, `NC(=O)C(c1cc(-c2ncnc3cc(N4CCOCC4)ccc23)c(F)cc1F)c1nccn2cccc12` (stereo not shown) [Example 348, 2-[2,4-Difluoro-5-(7-morpholin-4-yl-quinazolin-4-yl)-phenyl]-2-pyrrolo-[1,2-a]pyrazin-1-yl-acetamide]: 0.5 to 5 µM.
Same read-out and setting: next, `NC(=O)C(c1cccnn1)c1cc(-c2ncnc3cc(N4CCOCC4)ccc23)c(F)cc1Cl` (stereo not shown) [Example 300, 2-[2-Chloro-4-fluoro-5-(7-morpholin-4-yl-quinazolin-4-yl)-phenyl]-2-pyridazin-3-ylacetamide]: 10 to 30 µM.
The same measure, in the same setting: then `COc1nccnc1C(C(N)=O)c1cc(-c2ncnc3cc(N4CCOCC4)ccc23)ccc1F` (stereo not shown) [Example 316, 2-[2-Fluoro-5-(7-morpholin-4-yl-quinazolin-4-yl)-phenyl]-2-(3-methoxy-pyrazin-2-yl)acetamide], with 5 to 10 µM.
